Consider five compounds from US11649237B2, “Substituted imidazo[1,5-a]pyrazines for IRE1 inhibition” (Optikira LLC, priority 2017, dated 2023).

Test [1] relates to XBP-1 splicing in ARPE-19 cells or apoptosis of INS-1 cells expressing mIRE-1. The test can be described thus: Cellular assay (XBP1 splicing assay or apoptosis assay). The class given is cell-based. The note with it: data are for the XBP1 splicing assay or the apoptosis assay (not specified per compound). The protocol: ARPE-19 cells stably expressing XBP-1 (a.a. 1-376) with nano-luciferase gene sequence linked so it is in frame when XBP-1 is spliced, were cultured in F12 media, 10% FBS, 0.044% sodium bicarbonate, 150 μg/ml hygromycin B and seeded for assays at 5,000 cells in 384 well plates in culture media without hygromycin B and incubated at 37° C./5% CO2. […] After further incubation of 30 minutes thapsigargin was added (final concentration 150 nM) and then another 4 hour incubation. A NanoLuc luciferase assay (Promega) was used according to the manufacturer's instructions to detect the luciferase and luminescence measured on a luminometer (EnVision, PerkinElmer).
Doxycycline (final concentration 100 nM) was added and plates incubated for a further 72 hours. To determine the proportion of apoptotic cells Hoechst 33342 (final concentration 10 μg/mL) was added, then after 30 minutes incubation cells imaged and analyzed on an InCell high content imager.

Test [2] has as its target IRE1α RNase (Homo sapiens (Human), UniProt O75460). Put plainly: Biochemical assay, inhibition of RNase activity of IRE1α.
Procedure: Test compounds were prepared on the day of assay and dispensed using D300 digital dispenser as a 10-point ½ log dilution series in duplicate, normalized to a final DMSO concentration of 4%. Test compounds were pre-incubated for 30 min at room temperature with IRE1α kinase (E31-11G from Signal Chem) in 2.5 μL of assay buffer.

Sequence of IRE1α RNase (O75460 468-977): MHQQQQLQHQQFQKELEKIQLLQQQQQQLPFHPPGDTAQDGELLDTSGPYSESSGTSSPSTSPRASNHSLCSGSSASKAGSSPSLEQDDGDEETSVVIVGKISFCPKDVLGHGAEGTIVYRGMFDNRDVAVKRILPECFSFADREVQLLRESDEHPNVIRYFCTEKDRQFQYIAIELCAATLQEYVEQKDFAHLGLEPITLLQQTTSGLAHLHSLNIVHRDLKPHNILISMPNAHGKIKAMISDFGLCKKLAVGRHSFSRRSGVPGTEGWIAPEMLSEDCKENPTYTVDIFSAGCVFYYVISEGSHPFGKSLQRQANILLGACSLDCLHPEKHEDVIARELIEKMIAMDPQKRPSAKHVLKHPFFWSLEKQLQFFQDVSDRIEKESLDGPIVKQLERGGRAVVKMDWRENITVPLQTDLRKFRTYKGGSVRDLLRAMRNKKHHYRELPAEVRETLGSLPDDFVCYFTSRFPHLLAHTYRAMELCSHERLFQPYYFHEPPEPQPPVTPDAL

For `CC(C)c1nc(-c2ccc(NS(=O)(=O)c3ccccc3Cl)c(F)c2)c2c(N)ncc(C3=CCC(NCC(F)F)CC3)n12` (stereo not drawn) [Example 226, N-(4-(8-amino-5-(4-((2,2-difluoroethyl)amino)cyclohex-1-en-1-yl)-3-isopropylimidazo[1,5-a]pyrazin-1-yl)-2-fluorophenyl)-2-chlorobenzenesulfonamide], the half-maximal inhibitory concentration (IC50) in test [1] stood at 330 nM; in test [2] it was 213 nM. As to `CC(C)c1nc(-c2cc(F)c(NS(=O)(=O)c3ccccc3Cl)cc2F)c2c(N)ncc(C3=CCC(NCCF)CC3)n12` (stereo not drawn) [Example 228, N-(4-(8-amino-5-(4-((2-fluoroethyl)amino)cyclohex-1-en-1-yl)-3-isopropylimidazo[1,5-a]pyrazin-1-yl)-2,5-difluorophenyl)-2-chlorobenzenesulfonamide], the IC50 in test [1] turned out to be 10 nM; in test [2], 6 nM. Turning to `CC(C)c1nc(-c2ccc(NS(=O)(=O)c3ccccc3F)c(F)c2)c2c(N)ncc(C3=CCC(NCCF)CC3)n12` (stereo not drawn) [Example 229, N-(4-(8-amino-5-(4-((2-fluoroethyl)amino)cyclohex-1-en-1-yl)-3-isopropylimidazo[1,5-a]pyrazin-1-yl)-2-fluorophenyl)-2-fluorobenzenesulfonamide], the IC50 in test [1] and in test [2] was 25 nM throughout. Regarding `Cc1nc(-c2ccc(NS(=O)(=O)c3ccccc3Cl)c(F)c2)c2c(N)ncc(C3=CCC(NCCF)CC3)n12` (stereo not drawn) [Example 231, N-(4-(8-amino-5-(4-((2-fluoroethyl)amino)cyclohex-1-en-1-yl)-3-methylimidazo[1,5-a]pyrazin-1-yl)-2-fluorophenyl)-2-chlorobenzenesulfonamide], in test [1], the IC50 was 19 nM.

`CC(C)c1nc(-c2ccc(NS(=O)(=O)c3ccccc3Cl)c(F)c2)c2c(N)ncc(C3=CCC(NC4COC4)CC3)n12` (stereo not drawn) [Example 232, N-(4-(8-amino-3-isopropyl-5-(4-(oxetan-3-ylamino)cyclohex-1-en-1-yl)imidazo[1,5-a]pyrazin-1-yl)-2-fluorophenyl)-2-chlorobenzenesulfonamide]: the IC50 in test [1] came out at 200 nM; in test [2], 60 nM.
